Results as given in PubChem BioAssay (NCI).
Values joined by “and” are separate entries in the source; they are usually repeats but may differ in a detail not shown here. Equal values may be shown once.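 Step 1: Grow cells in 96-well plates. Step 2: Expose to compound for 48 hours at 5 concentrations. Step 3: Interpolate endpoints linearly; if unreached, use highest concentration. GI50 is the concentration that inhibits growth by half. TGI marks complete inhibition of growth.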

Assays:
Assay in all cases: NCI-60 cell line screen, 48 h
M14 melanoma = tested on: M14 melanoma
786-0 renal = tested on: 786-0 renal
PC-3 prostate = tested on: PC-3 prostate
UO-31 renal = tested on: UO-31 renal
SK-OV-3 ovarian = tested on: SK-OV-3 ovarian
HL-60(TB) leukemia = tested on: HL-60(TB) leukemia
OVCAR-8 ovarian = tested on: OVCAR-8 ovarian
TK-10 renal = tested on: TK-10 renal
NCI/ADR-RES ovarian = tested on: NCI/ADR-RES ovarian
U251 CNS = tested on: U251 CNS

Compound	GI50 (M14 melanoma) [nM]	TGI (M14 melanoma)	GI50 (786-0 renal)	TGI (786-0 renal)	GI50 (PC-3 prostate) [nM]	TGI (PC-3 prostate)	GI50 (UO-31 renal)	TGI (UO-31 renal) [µM]	GI50 (SK-OV-3 ovarian) [nM]	TGI (SK-OV-3 ovarian)	GI50 (HL-60(TB) leukemia) [nM]	TGI (HL-60(TB) leukemia)	GI50 (OVCAR-8 ovarian)	TGI (OVCAR-8 ovarian)	GI50 (TK-10 renal) [nM]	TGI (TK-10 renal)	GI50 (NCI/ADR-RES ovarian) [nM]	TGI (NCI/ADR-RES ovarian) [µM]	GI50 (U251 CNS) [nM]	TGI (U251 CNS)
O=C(Nc1ccc(-n2cc(-c3ccncc3)c(-c3ccc(Cl)c(O)c3)n2)cc1)c1cc(C(F)(F)F)cc(C(F)(F)F)c1	6340	89.2 µM	3780 nM	13.6 µM	3290	28.5 µM	2800 nM	13.5	2010	6.98 µM	> 100000	> 100 µM	6540 nM	34.8 µM	7550	23 µM	6910	> 100	4910	22 µM
Cn1cc(-c2ccc3ncc(-c4ccc(CC(=O)Nc5cc(C(C)(C)C)nn5C)cc4)cc3c2)cn1	984	> 20 µM	1280 nM	> 20 µM	961	> 20 µM	331 nM	2.08	934	> 20 µM	1200	8.28 µM	736 nM	7.08 µM	1520	> 20 µM	749	6.77	2110	> 20 µM
O=C1Nc2ccc(-c3cccnc3)cc2/C1=C/c1cc(Br)c(O)c(Br)c1	4450	> 21.9 µM	7180 nM	> 25 µM	9050	> 25 µM	6540 nM	> 18.3	8110	24.9 µM	6970	> 22.1 µM	9890 nM	> 25 µM	7820	24.3 µM	> 20000	> 25	6110	> 25 µM
Cc1cc(OC2OC(CO)C(O)C(O)C2O)ccc1O (stereo not given)	–	> 100 µM	–	> 100 µM	–	> 100 µM	–	> 100	–	> 100 µM	–	> 100 µM	–	> 100 µM	–	> 100 µM	–	> 100	–	> 100 µM
OCCNc1nc2ccccc2c2[nH]c3ccccc3c12	699	2.03 µM	407 nM	1.92 µM	1100	16.9 µM	297 nM	1.37	329	2.07 µM	349	1.95 µM	455 nM	4.7 µM	744	5.16 µM	738	5.18	661	4.31 µM
C[C@]12CCc3nc(Nc4ccc(O)cc4)sc3C1=CC[C@@H]1[C@@H]2CC[C@]2(C)/C(=N/NC(N)=S)CC[C@@H]12	1180	2.9 µM	1640 nM	3.09 µM	1580	5.28 µM	1300 nM	2.57	1620	3.25 µM	1880	5.07 µM	1740 nM	4.55 µM	2130	4.35 µM	2380	7.51	1290	2.6 µM
Cc1ccccc1Nc1cc(O)c2c(=O)cc(-c3ccccc3)oc2c1	2390	> 100 µM	4420 nM	> 100 µM	3300	> 100 µM	–	–	5560	> 100 µM	2160	> 100 µM	3610 nM	> 100 µM	–	–	1280	> 100	3040	> 100 µM
CCN1C(=O)N(CC)C2C1NC(=S)N2/N=C/C=C/c1ccccc1 (stereo not given)	88.1	> 100 µM	158 nM	> 100 µM	73.4	> 100 µM	192 nM	> 86.6	494	> 100 µM	38.7	0.29 µM	270 nM	> 100 µM	3660	> 100 µM	93.5	> 100	302	> 100 µM
CC(C)(C)O/N=C/c1cc(NC(=S)c2ccccc2)ccc1Cl	–	54.1 µM	–	32.5 µM	–	46 µM	–	31.6	–	> 100 µM	–	42.6 µM	–	35.6 µM	–	31.1 µM	–	33.5	–	45.5 µM
N#CN1CC[C@H](C(=O)Nc2ncc(-c3ccccc3)s2)C1	495	2.22 µM	404 nM	2.48 µM	706	2.97 µM	549 nM	5.36	2200	13.8 µM	269	0.652 µM	450 nM	6.46 µM	1190	2.99 µM	724	8.01	545	5.15 µM
COc1cccc(-c2cc(=O)c3cc(N4CCN(C)CC4)ccc3[nH]2)c1	2610	> 100 µM	5280 nM	> 100 µM	1550	> 100 µM	–	> 100	3840	9.29 µM and 87.2 µM	410	3.04 µM and 1.23 µM	1780 nM	4.99 µM and 6.39 µM	13500	94.6 µM	3680	–	–	–
CC[n+]1c(-c2ccccc2)c2cc(N)ccc2c2ccc(N)cc21	3840	16.6 µM and 44.5 µM	1370 nM and 1160 nM and 3570 nM	13.6 µM and 12.7 µM and 26.1 µM	1970	17.5 µM and 26.5 µM	21400 nM and 86900 nM and 27200 nM	> 100	2190	23.5 µM and 25.6 µM	–	18 µM and 26.9 µM and 47.6 µM	695 nM and 1370 nM and 2940 nM	12.2 µM and 16.2 µM and 33.2 µM	2380	19.7 µM and 68.8 µM	–	> 100	399	10.2 µM and 20.7 µM
OCc1ccc(-c2ccc(-c3ccc(CO)o3)o2)o1	> 100000	> 100 µM	35300 nM	> 100 µM	> 100000	> 100 µM	> 100000 nM	> 100	> 83300	> 100 µM	> 100000	> 100 µM	> 100000 nM	> 100 µM	2630	19.8 µM	> 100000	> 100	39100	> 100 µM
